Patent US20220305019A1, “PARAXANTHINE-BASED COMPOSITIONS FOR PROMOTING WEIGHT LOSS” (Ingenious Ingredients, LP, priority 2021, published 2022)

Tests used:
Format in all cases: in vivo, human
[1] = Confidence visual analog scale (VAS) after oral ingestion, crossover, two participants; parameters: Confidence (Visual Analog Scale) / Confidence VAS MEAN: scale not given here; settings: 100 mg PX
Experimental: (§1) All supplements were orally ingested with 8 fluid ounces of cold tap water. The order of administration for all interventions was randomized using a random allocation software to ensure randomization and to avoid order effects. After ingestion, participants completed all assessments in an identical fashion 30, 60, 90, 120, and 180 minutes after ingestion of their assigned supplement. All study visits took place between 0600-1000 hours. At least 72 hours of rest took place between each condition.

[2] = Swagger visual analog scale (VAS) after oral ingestion, crossover, two participants; parameters: Swagger (Visual Analog Scale) / Swagger VAS MEAN: scale not given here; settings: 100 mg PX
Experimental: as §1

[3] = Appetite visual analog scale (VAS) after oral ingestion, crossover, two participants; parameters: Appetite Visual Analog Scale / Appetite Visual Analog Scale MEAN: scale not given here; settings: for Appetite Visual Analog Scale MEAN: mean 30-180 min
Experimental: All supplements were orally ingested with 8 fluid ounces of cold tap water. The order of administration for all interventions was randomized using a random allocation software to ensure randomization and to avoid order effects. […] All study visits took place between 0600-1000 hours. At least 72 hours of rest will take place between each condition.

[4] = Self-reported swagger after consuming paraxanthine (individual reports); settings: person
[5] = Respiratory quotient (RQ=VCO2/VO2) after oral ingestion, crossover, two participants; settings: 100 mg PX
Experimental: as §1, with “Upon determination of baseline respiratory quotient (RQ=VCO2/VO2) two participants were assigned in a randomized, double-blind, placebo-controlled, crossover fashion to ingest a non-energetic placebo (maltodextrin) or a 100 mg paraxanthine (PX). All supplements” for “All supplements”
The lower the RQ, the more fat that is being oxidized for body energy needs. The closer to 1.0 the more carbohydrate is being burned for energy needs. If numbers are lower, more fat is being oxidized. PX reduced the respiratory quotient by more than 10% compared to placebo, increasing fat oxidation (“fat burning”).

Cn1c(=O)[nH]c2ncn(C)c2c1=O [PX, paraxanthine]
effect on confidence [1]: failed to increase confidence | Confidence (Visual Analog Scale) ([1]; 30 min, person one): 70 | Confidence (Visual Analog Scale) ([1]; 30 min, person two): 70 | Confidence (Visual Analog Scale) ([1]; 60 min, person one): 80 | Confidence (Visual Analog Scale) ([1]; 60 min, person two): 70 | Confidence (Visual Analog Scale) ([1]; 90 min, person one): 89 | Confidence (Visual Analog Scale) ([1]; 90 min, person two): 65 | Confidence (Visual Analog Scale) ([1]; 120 min, person one): 81 | Confidence (Visual Analog Scale) ([1]; 120 min, person two): 75 | Confidence (Visual Analog Scale) ([1]; 180 min, person one): 90 | Confidence (Visual Analog Scale) ([1]; 180 min, person two): 70 | Confidence VAS MEAN ([1]; Average of both): 76.0 | Confidence VAS MEAN ([1]; person one): 82.0 | Confidence VAS mean Δ vs. PLA ([1]; person one): +0.6 | Confidence VAS MEAN ([1]; person two): 70.0 | Confidence VAS mean Δ vs. PLA ([1]; person two): −1.0 | increase of swagger over 200 mg caffeine ingestion [2]: 26% | increase of swagger over placebo [2]: 21% | Swagger (Visual Analog Scale) ([2]; 30 min, person one): 91 | Swagger (Visual Analog Scale) ([2]; 30 min, person two): 71 | Swagger (Visual Analog Scale) ([2]; 60 min, person one): 80 | Swagger (Visual Analog Scale) ([2]; 60 min, person two): 71 | Swagger (Visual Analog Scale) ([2]; 90 min, person one): 89 | Swagger (Visual Analog Scale) ([2]; 90 min, person two): 80 | Swagger (Visual Analog Scale) ([2]; 120 min, person one): 81 | Swagger (Visual Analog Scale) ([2]; 120 min, person two): 75 | Swagger (Visual Analog Scale) ([2]; 180 min, person one): 90 | Swagger (Visual Analog Scale) ([2]; 180 min, person two): 70 | Swagger VAS MEAN ([2]; Average of both): 79.8 | Swagger VAS MEAN ([2]; person one): 86.2 | Swagger VAS mean Δ vs. PLA ([2]; person one): +7.6 | Swagger VAS MEAN ([2]; person two): 73.4 | Swagger VAS mean Δ vs. PLA ([2]; person two): +20.0 | reduction of mean appetite compared to placebo ([3]; 100 mg PX): 38.5% | appetite reduction compared to CA ([3]; 100 mg PX and 300 mg PX vs 200 mg CA): greater reduction in appetite compared to CA | Appetite Visual Analog Scale ([3]; 100 mg PX, 30 min, person one): 29 | Appetite Visual Analog Scale ([3]; 100 mg PX, 30 min, person two): 70 | Appetite Visual Analog Scale ([3]; 100 mg PX, 60 min, person one): 27 | Appetite Visual Analog Scale ([3]; 100 mg PX, 60 min, person two): 65 | Appetite Visual Analog Scale ([3]; 100 mg PX, 90 min, person one): 25 | Appetite Visual Analog Scale ([3]; 100 mg PX, 90 min, person two): 60 | Appetite Visual Analog Scale ([3]; 100 mg PX, 120 min, person one): 29 | Appetite Visual Analog Scale ([3]; 100 mg PX, 120 min, person two): 85 | Appetite Visual Analog Scale ([3]; 100 mg PX, 180 min, person one): 35 | Appetite Visual Analog Scale ([3]; 100 mg PX, 180 min, person two): 90 | Appetite Visual Analog Scale MEAN ([3]; 100 mg PX, Average of both): 51.5 | Appetite Visual Analog Scale MEAN ([3]; 100 mg PX, person one): 29.0 | Appetite Visual Analog Scale MEAN ([3]; 100 mg PX, person two): 74.0 | Appetite VAS mean Δ vs. PLA ([3]; 100 mg PX, person one): −65.2 | Appetite VAS mean Δ vs. PLA ([3]; 100 mg PX, person two): +0.8 | reduction of mean appetite compared to placebo ([3]; 300 mg PX): 43.1% | Appetite Visual Analog Scale ([3]; 300 mg PX, 30 min, person one): 24 | Appetite Visual Analog Scale ([3]; 300 mg PX, 30 min, person two): 65 | Appetite Visual Analog Scale ([3]; 300 mg PX, 60 min, person one): 30 | Appetite Visual Analog Scale ([3]; 300 mg PX, 60 min, person two): 60 | Appetite Visual Analog Scale ([3]; 300 mg PX, 90 min, person one): 29 | Appetite Visual Analog Scale ([3]; 300 mg PX, 90 min, person two): 55 | Appetite Visual Analog Scale ([3]; 300 mg PX, 120 min, person one): 27 | Appetite Visual Analog Scale ([3]; 300 mg PX, 120 min, person two): 60 | Appetite Visual Analog Scale ([3]; 300 mg PX, 180 min, person one): 26 | Appetite Visual Analog Scale ([3]; 300 mg PX, 180 min, person two): 80 | Appetite Visual Analog Scale MEAN ([3]; 300 mg PX, Average of both): 45.6 | Appetite Visual Analog Scale MEAN ([3]; 300 mg PX, person one): 27.2 | Appetite Visual Analog Scale MEAN ([3]; 300 mg PX, person two): 64.0 | Appetite VAS mean Δ vs. 100 mg PX ([3]; 300 mg PX, person one): −1.8 | Appetite VAS mean Δ vs. PLA ([3]; 300 mg PX, person one): −67.0 | Appetite VAS mean Δ vs. 100 mg PX ([3]; 300 mg PX, person two): −10.0 | Appetite VAS mean Δ vs. PLA ([3]; 300 mg PX, person two): −9.2 | self-reported swagger ([4]; 50 mg daily during two weeks): increase in swagger | self-reported swagger ([4]; 100 mg, workplace and team sports): significant increases in swagger | self-reported swagger ([4]; 200 mg): an increase in swagger | self-reported swagger ([4]; 400 mg): a significant boost in swagger | reduction of respiratory quotient compared to placebo [5]: more than 10% | Respiratory Quotient ([5]; 30 min, person one): 0.68 | Respiratory Quotient ([5]; 30 min, person two): 0.81 | Respiratory Quotient ([5]; 60 min, person one): 0.66 | Respiratory Quotient ([5]; 60 min, person two): 0.74 | Respiratory Quotient ([5]; 90 min, person one): 0.72 | Respiratory Quotient ([5]; 90 min, person two): 0.74 | Respiratory Quotient ([5]; 120 min, person one): 0.70 | Respiratory Quotient ([5]; 120 min, person two): 0.69 | Respiratory Quotient ([5]; 180 min, person one): 0.77 | Respiratory Quotient ([5]; 180 min, person two): 0.70 | Respiratory Quotient MEAN ([5]; Average of both): 0.725 | Respiratory Quotient MEAN ([5]; person one): 0.71 | Respiratory Quotient MEAN Δ from 0 ([5]; person one): −0.014 | Respiratory Quotient MEAN ([5]; person two): 0.74 | Respiratory Quotient MEAN Δ from 0 ([5]; person two): −0.004 | Respiratory Quotient ([5]; time 0 (baseline), person one): 0.72 | Respiratory Quotient ([5]; time 0 (baseline), person two): 0.74
